Source: paper PMC7400437, “Synthesis and Evaluation of the Antibacterial Activities of 13-Substituted Berberine Derivatives” (Antibiotics, 2020)
Where two headings read alike, the source gives them in different places.

Legend:
[1] = test system: S. aureus; experiment: MIC, antimicrobial activity assay; format: cell-based, Staphylococcus aureus (ATCC 6538P); conditions: Staphylococcus aureus
[2] = test system: C. difficile; experiment: MIC, antimicrobial activity assay; format: cell-based, Clostridium difficile (DSM 1296); conditions: Clostridioides difficile; Table 4, Gram-positive; anaerobic
[3] = test system: E. faecalis (Vancomycin-resistant); experiment: MIC, antimicrobial activity assay; format: cell-based, vancomycin-resistant Enterococcus faecalis (DSMZ 13591); conditions: Enterococcus faecalis, read-out: MIC E. faecalis (Vancomycin-resistant)
[4] = test system: L. lactis; experiment: MIC, antimicrobial activity assay; format: cell-based, Lactococcus lactis (DSM 20481); conditions: Lactococcus lactis; Table 4, Gram-positive
[5] = test system: S. pyogenes; experiment: MIC, antimicrobial activity assay; format: cell-based, Streptococcus pyogenes (DSM 20565); conditions: Streptococcus pyogenes; Table 4, Gram-positive; anaerobic
[6] = test system: C. rodentium; experiment: MIC, antimicrobial activity assay; format: cell-based, Citrobacter rodentium (ATCC 51116); conditions: Citrobacter rodentium; Table 4, Gram-negative
[7] = test system: H. pylori; experiment: MIC, antimicrobial activity assay; format: cell-based, Helicobacter pylori (ATCC 43504); conditions: Helicobacter pylori; Table 4, Gram-negative; microaerobic
[8] = test system: S. flexneri; experiment: MIC, antimicrobial activity assay; format: cell-based, Shigella flexneri (ATCC 12022); conditions: Shigella flexneri; Table 4, Gram-negative
[9] = test system: BEAS (human airway epithelial cells); experiment: Cytotoxic assay on human cells (resazurin); format: cell-based; conditions: Epithelial cell, 48 h, means +/−SD, read-out: Inhibitory Concentration 50 (IC50) on cell viability, BEAS
Outline: (§1)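 Cells grown to confluence (48–72 h) were exposed for 48 h at 37 °C to 1:2 serial dilutions from 0 to 50 µM, with 0.5% DMSO as negative control. Resazurin 1:10 in PBS++ was added for 4 h, and fluorescence was read at 530/590 nm and normalized to DMSO wells. IC50 is the concentration giving 50% viability reduction.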

[10] = test system: Caco2 (human intestinal epithelial cells); experiment: Cytotoxic assay on human cells (resazurin); format: cell-based; conditions: for IC50: Homo sapiens, Caco-2, 48 h, read-out: Inhibitory Concentration 50 (IC50) on cell viability, Caco2; for therapeutic index Caco2: IC50 on Caco2 divided by MIC on S. aureus
[11] = test system: HepG2 (human liver cells); experiment: Cytotoxic assay on human cells (resazurin); format: cell-based; conditions: HepG2, 48 h, read-out: Inhibitory Concentration 50 (IC50) on cell viability, HEPG2
Outline: as §1

[12] = test system: V. alginolyticus; experiment: Bacterial membrane permeabilization assay (propidium iodide); format: cell-based, Vibrio alginolyticus; conditions: for membrane permeabilization at 4-times MIC, V. alginolyticus: 4-times their MIC; for maximal membrane permeabilization, V. alginolyticus: 120 min exposure to 100 µM, CTAB 300 µM = 100%
Method: (§2) Membrane permeabilization by berberine derivatives was evaluated using the cell-impermeable DNA/RNA probe propidium iodide as previously explained. Logarithmic growing bacterial suspensions were prepared from overnight bacterial suspension by 1 in 10 dilution. After 3 h incubation at 37 °C, 200 rpm, bacterial suspensions were centrifuged for 5 min at 3000 rpm. Cell pellets were then resuspended in sterile PBS at about 10^9 cells/mL. Propidium iodide (Sigma Aldrich) was then added to the suspension at a final concentration of 60 µM. 100 µL of this suspension were then transferred into 96-well black plates (Dominique Dutscher) and exposed to increasing concentrations of berberine’s derivative (from 0 to 100 µM, 1:2 dilution). […] All steps of the assay were performed in aerobic condition except for H. pylori which was done in microaerobic condition generated with GasPak unit (Sigma Aldrich). Bacteria were incubated at 37 °C and the kinetics of fluorescence variations (excitation at 530 nm and emission at 590 nm) were then recorded over time using a Synergy Mx microplate reader (Biotek). Cetyl trimethylammonium bromide (CTAB) at 300 µM was used as positive control giving 100% permeabilization. Results were expressed in % of permeabilization. All experiments were done in triplicate.

[13] = test system: H. pylori; experiment: as above; format: cell-based, Helicobacter pylori; conditions: for membrane permeabilization at 4-times MIC, H. pylori: 4-times their MIC; for maximal membrane permeabilization, H. pylori: 120 min exposure to 100 µM, CTAB 300 µM = 100%
Method: as §2

[14] = test system: B. subtilis; experiment: as above; format: cell-based, Bacillus subtilis; conditions: for membrane permeabilization at 4-times MIC, B. subtilis: 4-times their MIC; for maximal membrane permeabilization, B. subtilis: 120 min exposure to 100 µM, CTAB 300 µM = 100%
Method: as §2

[15] = test system: bacterial DNA extracted from V. alginolyticus; experiment: DNA fragmentation assay; conditions: 6 h at 37 °C, 4-times their MIC
[16] = test system: DNA extracted from S. aureus; experiment: DNA fragmentation assay; conditions: data not shown
[17] = test system: DNA extracted from H. pylori; experiment: DNA fragmentation assay; conditions: data not shown
[18] = test system: B. subtilis; experiment: Macromolecule synthesis inhibition assay by fluorescent microscopy (morphological changes); conditions: 4 × MIC, 2 h, 37 °C; for Observed Morphology: DNA, B. subtilis: DAPI; for Known/Possible Target, B. subtilis: inferred from morphology
[19] = Table 1 first screening, read-out: Minimal Inhibitory Concentration (MIC) S. aureus
[20] = Table 4, Gram-positive, read-out: MIC S. aureus

| SMILES | MIC [1, 19] [µM] | MIC [1, 20] [µM] | MIC [2] [µM] | MIC [3] [µM] | MIC [4] [µM] | MIC [5] [µM] | MIC [6] [µM] | MIC [7] [µM] | MIC [8] [µM] | IC50 [9] [µM] | IC50 [10] [µM] | therapeutic index Caco2 [10] | IC50 [11] [µM] | membrane permeabilization at 4-times MIC, V. alginolyticus [12] | maximal membrane permeabilization, V. alginolyticus [12] | membrane permeabilization at 4-times MIC, H. pylori [13] | maximal membrane permeabilization, H. pylori [13] | membrane permeabilization at 4-times MIC, B. subtilis [14] | maximal membrane permeabilization, B. subtilis [14] | DNA fragmentation, V. alginolyticus DNA [15] | further results |
| --- | --- | --- | --- | --- | --- | --- | --- | --- | --- | --- | --- | --- | --- | --- | --- | --- | --- | --- | --- | --- | --- |
| COc1cc(C(=O)Cc2c3[n+](cc4c(OC)c(OC)ccc24)CCc2cc4c(cc2-3)OCO4)cc(OC)c1OC(=O)c1ccccc1 [Compound 16, 4-[2-(Berberin-13-yl)acetyl]-2,6-dimethoxyphenyl Benzoate] | 6.25 to 12.5 | 6.25 | 100 | 50 | 6.25 to 12.5 | 6.25 | > 100 | 6.25 | > 100 | > 50 | > 50 | 10.36 | > 50 | 20–40% | 80–100% | low to no membrane permeabilization | 50–60% | low to no membrane permeabilization | 10–15% | did not caused DNA fragmentation | DNA fragmentation, S. aureus DNA [16]: failed at causing the fragmentation of DNA; DNA fragmentation, H. pylori DNA [17]: failed at causing the fragmentation of DNA; Observed Morphology: cell elongation/enlargement, B. subtilis [18]: 1.5–6 times compared to control; Observed Morphology: cells connected, B. subtilis [18]: 2–4 cells connected; Observed Morphology: DNA, B. subtilis [18]: 2 morphologies of DNA: • - 2 condensed DNA in each cell • - Decondensed DNA spanning the cell; Known/Possible Target, B. subtilis [18]: Cell wall biosynthesis |
| COc1ccc(C(=O)/C=C/c2ccc(Cc3c4[n+](cc5c(OC)c(OC)ccc35)CCc3cc5c(cc3-4)OCO5)cc2)c(O)c1 [Compound 25, (2E)-3-{4-[(Berberin-13-yl)methyl]phenyl}-1-(2-hydroxy-4-methoxyphenyl)prop-2-en-1-one] | 3.12 | 3.12 | 12.5 | 12.5 | 1.5 to 3.12 | 6.25 | > 100 | 3.12 | > 100 | 8.87 ± 1.5 | 10.5 ± 0.7 | 3.37 | > 50 | 20–40% | 80–100% | low to no membrane permeabilization | 50–60% | low to no membrane permeabilization | 10–15% | did not caused DNA fragmentation | DNA fragmentation, S. aureus DNA [16]: failed at causing the fragmentation of DNA; DNA fragmentation, H. pylori DNA [17]: failed at causing the fragmentation of DNA; Observed Morphology: cell elongation/enlargement, B. subtilis [18]: 1–2.5 times compared to control; Observed Morphology: cells connected, B. subtilis [18]: 2–8 cells connected; Observed Morphology: DNA, B. subtilis [18]: DNA condensed and cross the cells with dot like shape; Observed Morphology: cell membrane, B. subtilis ([18]; FM4-64FX): Cell membrane thickening; Known/Possible Target, B. subtilis [18]: RNA biosynthesis |
